This data set can be described thus: Solubility of 3,4-alkylenedioxythiophene compounds in water at 25° C. The settings on record: visually adjudged dissolved; for solubility: thermodynamic from solid. The class given is physicochemical. As for the experimental part:
The solubility of the 3,4-alkylenedioxythiophene compounds was determined by adding a particular quantity thereof with stirring to sufficient water so that all the monomer was visually adjudged to have dissolved.

This is an account of results in patent US7105620B2, “3,4-alkylenedioxy-thiophene copolymers” (Agfa Gevaert, priority 2001, dated 2006).

Converted amounts (≈) assume the structure as drawn.

As usually defined, the solubility is how much of the substance goes into solution per volume. A low value points to little dissolved substance.

The compound `COCCOCCOCCOCC1COc2cscc2O1` (stereo not drawn) [M4, 2-{2-[2-(2-methoxy-ethoxy)-ethoxy]-ethoxymethyl}-2,3-dihydro-thieno[3,4-b][1,4]dioxine] displayed a solubility of around 4500 µg/mL (≈ 14.1 mM).
On the same count and under the same terms, in the case of `O=S(=O)([O-])CCCCOCC1COc2cscc2O1.[Na+]` (stereo not drawn) [M6, 4-(2,3-dihydro-thieno[3,4-b][1,4]dioxin-2-ylmethoxy)-butane-1-sulfonic acid sodium salt] it was around 167000 µg/mL; in that of `OC1COc2cscc2OC1` [M2, 3,4-dihydro-2H-thieno[3,4-b][1,4]dioxepin-3-ol], around 8200 µg/mL (≈ 47.6 mM).
On the same count and under the same terms, in the case of `O=C(O)COCC1COc2cscc2O1` (stereo not drawn) [M3, (2,3-dihydro-thieno[3,4-b][1,4]dioxin-2-yl-methoxy)-acetic acid] it was around 2700 µg/mL (≈ 11.7 mM).
Same read-out and setting: as for `OCC1COc2cscc2O1` (stereo not drawn) [M1, (2,3-dihydro-thieno[3,4-b][1,4]dioxin-2-yl)-methanol], the figure is around 10000 µg/mL (≈ 58.1 mM).
With “Polyethylene Oxide Substituted (2,3-dihydro-thieno[3,4-b][1,4]dioxin-2-yl)-methanol [M5]”, the “Solubility in water at 25° C.” value is listed as “ca. >128 g/L”.
